Measurements reported in PMC7755424 (Journal of medicinal chemistry, 2020).
Converted amounts (≈) assume the structure as drawn. One block for each compound: values may come before it.

What was measured:
human sEH = biological target: T1, human sEH (Homo sapiens, UniProt P34913); test: sEH inhibition, fluorescent-based assay; assay type: biochemical; details: for reduction of the potency (hsEH) relative to 12: compared with 12
T1 sequence (P34913 1-555): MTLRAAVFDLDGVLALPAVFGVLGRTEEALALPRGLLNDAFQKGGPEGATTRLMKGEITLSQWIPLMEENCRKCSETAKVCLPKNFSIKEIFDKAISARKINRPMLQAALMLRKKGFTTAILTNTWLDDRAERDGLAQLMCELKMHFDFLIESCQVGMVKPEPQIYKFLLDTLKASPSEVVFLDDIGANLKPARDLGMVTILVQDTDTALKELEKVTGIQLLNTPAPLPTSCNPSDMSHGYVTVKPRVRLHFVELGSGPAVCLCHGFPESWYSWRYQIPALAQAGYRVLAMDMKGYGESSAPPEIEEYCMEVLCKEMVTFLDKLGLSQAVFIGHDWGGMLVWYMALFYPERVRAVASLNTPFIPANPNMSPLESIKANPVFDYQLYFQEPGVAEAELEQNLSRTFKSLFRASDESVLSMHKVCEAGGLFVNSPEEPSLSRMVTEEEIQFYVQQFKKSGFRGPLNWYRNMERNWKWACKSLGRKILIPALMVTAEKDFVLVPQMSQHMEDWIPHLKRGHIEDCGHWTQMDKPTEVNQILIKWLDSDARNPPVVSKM

[1] = system: human recombinant cytochrome P450 enzymes, mainly CYP1A2, CYP2C9, CYP2C19, CYP2D6 and CYP3AE; test: Cytochrome P450 inhibition assay; assay type: in vitro ADME
[2] = system: Peripheral Blood Mononuclear Cells (PBMC); test: Cytotoxicity in PBMCs cells + 1.5% PHA; assay type: cell-based; details: highest concentration tested (20 μM)
hERG channel = hERG channel (Homo sapiens, UniProt Q12809); test: hERG inhibition; details: at 10 μM
hLOX-5 = biological target: T2, hLOX-5 (Homo sapiens, UniProt P09917); test: Inhibition of human lipoxygenase-5; assay type: biochemical; details: selectivity
T2 sequence (P09917 1-674): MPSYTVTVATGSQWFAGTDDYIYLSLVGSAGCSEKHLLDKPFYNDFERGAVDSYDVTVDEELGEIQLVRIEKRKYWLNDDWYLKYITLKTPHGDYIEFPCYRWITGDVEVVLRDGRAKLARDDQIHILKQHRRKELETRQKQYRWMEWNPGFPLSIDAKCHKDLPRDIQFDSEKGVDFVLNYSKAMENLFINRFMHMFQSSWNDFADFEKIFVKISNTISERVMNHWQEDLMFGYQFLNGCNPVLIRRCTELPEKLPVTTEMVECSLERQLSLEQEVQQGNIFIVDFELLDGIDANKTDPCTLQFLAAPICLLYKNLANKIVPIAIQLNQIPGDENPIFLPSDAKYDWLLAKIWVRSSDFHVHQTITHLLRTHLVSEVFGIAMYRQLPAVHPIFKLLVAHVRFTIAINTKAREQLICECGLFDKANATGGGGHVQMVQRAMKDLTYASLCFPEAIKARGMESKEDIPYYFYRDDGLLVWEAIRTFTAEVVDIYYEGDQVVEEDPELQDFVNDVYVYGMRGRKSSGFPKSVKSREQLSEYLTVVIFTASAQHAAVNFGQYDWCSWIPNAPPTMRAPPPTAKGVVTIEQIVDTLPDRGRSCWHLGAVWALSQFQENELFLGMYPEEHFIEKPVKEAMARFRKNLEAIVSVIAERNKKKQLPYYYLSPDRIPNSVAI

cerulein-induced AP [3] = test: In vivo efficacy, cerulein-induced AP, pre-induction; design: species or system C57BL/6J mice
[4] = Pharmacokinetic study in mouse; details: IP, 1 mg/kg
cerulein-induced AP [5] = test: In vivo efficacy, cerulein-induced AP, post-induction; design: species or system C57BL/6J mice; details: for inflammatory (TNF-α, IL-1β and MCP-1) and ER stress (ATF3) markers mRNA: post-induction, vs cerulein only
[6] = Maximum tolerated dose study; assay type: in vivo; details: mice, ip daily, 5, 10, 20 and 80 mg/kg, five consecutive days
[7] = system: AR42J pancreatic acinar rat cell line; test: In vitro proof of concept: cerulein-induced AP in AR42J cells; assay type: cell-based; details: 60 μM, cerulein 10 nM
[8] = Solubility by light scattering; assay type: physicochemical; details: 1% DMSO:99% PBS buffer

Chain of hERG channel (Q12809 whole entry): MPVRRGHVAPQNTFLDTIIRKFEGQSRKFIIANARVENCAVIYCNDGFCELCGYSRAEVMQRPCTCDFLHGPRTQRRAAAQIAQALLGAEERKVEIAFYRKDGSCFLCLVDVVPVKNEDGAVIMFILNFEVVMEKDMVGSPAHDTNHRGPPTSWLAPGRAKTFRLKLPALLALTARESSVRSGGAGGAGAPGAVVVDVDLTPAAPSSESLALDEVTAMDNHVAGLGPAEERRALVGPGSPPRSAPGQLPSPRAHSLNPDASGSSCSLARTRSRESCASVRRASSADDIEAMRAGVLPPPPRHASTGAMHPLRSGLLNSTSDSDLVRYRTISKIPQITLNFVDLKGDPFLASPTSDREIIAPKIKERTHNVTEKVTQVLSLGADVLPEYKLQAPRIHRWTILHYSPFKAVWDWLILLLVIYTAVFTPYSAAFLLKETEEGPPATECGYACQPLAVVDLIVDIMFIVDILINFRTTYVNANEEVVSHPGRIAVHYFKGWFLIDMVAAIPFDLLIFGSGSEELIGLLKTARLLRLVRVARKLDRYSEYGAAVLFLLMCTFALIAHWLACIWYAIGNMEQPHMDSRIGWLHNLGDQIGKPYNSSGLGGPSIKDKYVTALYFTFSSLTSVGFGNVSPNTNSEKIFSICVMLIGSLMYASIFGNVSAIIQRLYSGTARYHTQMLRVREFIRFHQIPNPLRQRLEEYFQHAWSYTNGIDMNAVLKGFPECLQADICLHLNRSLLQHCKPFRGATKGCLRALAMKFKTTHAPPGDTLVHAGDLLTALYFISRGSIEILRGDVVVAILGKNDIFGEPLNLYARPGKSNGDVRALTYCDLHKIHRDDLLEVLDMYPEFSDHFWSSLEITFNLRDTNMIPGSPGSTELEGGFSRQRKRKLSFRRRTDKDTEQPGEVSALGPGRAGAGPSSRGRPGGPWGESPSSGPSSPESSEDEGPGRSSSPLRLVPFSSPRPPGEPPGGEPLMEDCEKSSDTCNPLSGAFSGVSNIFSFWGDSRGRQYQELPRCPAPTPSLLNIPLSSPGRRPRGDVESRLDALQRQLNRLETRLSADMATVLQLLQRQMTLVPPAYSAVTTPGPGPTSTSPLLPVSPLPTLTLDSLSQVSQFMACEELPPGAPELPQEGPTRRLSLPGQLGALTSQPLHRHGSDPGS

Compound: CS(=O)(=O)N1CCC(NC(=O)NC23CC4CC(CC(C4)O2)C3)CC1 [Compound 26, 1-(2-Oxaadamantan-1-yl)-3-(1-(methylsulfonyl)piperidin-4-yl)urea]
reduction of the potency (hsEH) relative to 12 (human sEH): eight

IC50 (human sEH): 47.4 nM
Compound: O=C(Nc1ccc(F)c(F)c1F)NC12CC3CC(C1)OC(C3)C2 [Compound 4, 1-(2-oxaadamant-5-yl)-3-(2,3,4-trifluorophenyl)urea]

Compound: CC(=O)N1CCC(NC(=O)NC23CC4CC(CC(C4)O2)C3)CC1 [Compound 12, 1-(1-acetylpiperidin-4-yl)-3-(oxaadamant-1-yl)urea]
potency inhibiting the different cytochromes tested [1]: higher than 10 μM | cytotoxicity in the PBMC [2]: not cytotoxic | inhibition on hERG (hERG channel): minimal inhibition

Compound: O=C(NC1CCN(C(=O)c2cccnc2)CC1)NC12CC3CC(CC(C3)O1)C2 [Compound 20, 1-(2-Oxaadamant-1-yl)-3-(1-nicotinoylpiperidin-4-yl)urea]
drop in inhibitory activity (hsEH) relative to 21 (human sEH; 3-pyridyl vs 2-fluorophenyl (21)): 3 folds

Compound: O=C(NC1CCN(C(=O)c2ccccc2F)CC1)NC12CC3CC(CC(C3)O1)C2 [Compound 21, 1-(2-Oxaadamant-1-yl)-3-(1-(2-fluorobenzoyl)piperidin-4-yl)urea]
inhibition of hLOX-5 (hLOX-5): displayed significant inhibition | cytotoxicity in the PBMC [2]: not cytotoxic

Compound: O=C(NC1CCN(Cc2ccccc2)CC1)NC12CC3CC(CC(C3)O1)C2 [Compound 15, 1-(2-Oxaadamant-1-yl)-3-(1-benzylpiperidin-4-yl)urea]
reduction of the potency (hsEH) relative to 12 (human sEH): ~40 fold

Compound: CCC(=O)N1CCC(NC(=O)NC23CC4CC(CC(C4)O2)C3)CC1 [Compound 24, 1-(2-Oxaadamantan-1-yl)-3-(1-propionylpiperidin-4-yl)urea]
inhibition of hLOX-5 (hLOX-5): displayed significant inhibition | reduction of the potency (hsEH) relative to 12 (human sEH): 10–15 fold

Compound: O=C(NC1CCN(C(=O)C2CCOCC2)CC1)NC12CC3CC(CC(C3)O1)C2 [Compound 19, 1-(2-Oxaadamant-1-yl)-3-(1-(tetrahydro-2H-pyran-4-carbonyl)piperidin-4-yl)urea]
reduction of the potency (hsEH) relative to 12 (human sEH): 10–15 fold

IC50 (human sEH): 31.3 nM
Compound: O=C(Nc1ccc(F)c(F)c1F)NC12OC3C4C5CC(C6C5C3C61)C42 (stereo not shown) [Compound 9, 1-(4-oxahexacyclo[5.4.1.0^2,6.0^3,10.0^5,9.0^8,11]dodecan-3-yl)-3-(2,3,4-trifluorophenyl)urea]

Compound: O=C(NC1CCN(C(=O)C2CC2)CC1)NC12CC3CC(CC(C3)O1)C2 [Compound 23, 1-(2-Oxaadamant-1-yl)-3-(1-(cyclopropanecarbonyl)-piperidin-4-yl)urea]
reduction of the potency (hsEH) relative to 12 (human sEH): 10–15 fold

Compound: CC(C)S(=O)(=O)N1CCC(NC(=O)NC23CC4CC(CC(C4)O2)C3)CC1 [Compound 22, 1-(2-Oxaadamant-1-yl)-3-(1-(isopropylsulfonyl)piperidin-4-yl)urea]
inhibition of hLOX-5 (hLOX-5): displayed significant inhibition | increase of inflammatory (TNF-α, IL1-β and MCP-1) and ER stress (ATF3) markers produced by cerulein (cerulein-induced AP [3]; pre-induction, 30 mg/kg): significantly reduced | cerulein-induced edema and inflammation (H&E histology) (cerulein-induced AP [3]; treated before the induction of AP): significant decrease | Cl [4]: 473.5 mL/min/kg | inflammatory (TNF-α, IL-1β and MCP-1) and ER stress (ATF3) markers mRNA (cerulein-induced AP [5]; 3 mg/kg): did not cause a significant reduction | inflammatory (TNF-α, IL-1β and MCP-1) and ER stress (ATF3) markers mRNA (cerulein-induced AP [5]; 30 mg/kg): significant reduction | cerulein-induced edema and inflammation (H&E histology) (cerulein-induced AP [5]; treated after the induction of AP): significant decrease | potency inhibiting the different cytochromes tested [1]: higher than 10 μM | cytotoxicity in the PBMC [2]: not cytotoxic | toxic effects (body weight, behavior problems, petechiae) [6]: No toxic effects were observed | increase in the expression of IL-6, CHOP and TRB3 caused by cerulein [7]: completely abolished | increment in TNF-α caused by cerulein exposure [7]: strongly attenuated | inhibition on hERG (hERG channel): minimal inhibition

solubility at 2 h [8]: 24 µM (≈ 7.67 µg/mL)
Compound: CC(=O)N1CCC(NC(=O)NC23CC4CC(CC(C4)C2)C3)CC1 [Compound 1, 1-(1-Acetyl-piperidin-4-yl)-3-adamantan-1-yl-urea]
